Source: patent US8853246B2 (Dow AgroSciences LLC, priority 2009, dated 2014)

Assays:
[1] = test system: Green Peach Aphid (Myzus Persicae); assay: Insecticidal test for green peach aphid in foliar spray assay (col. MYZUPE); assay type: in vivo; details: Myzus persicae, 72 h, green peach aphid, read-out: MYZUPE 200 ppm (Corrected % Control, rating)
Method in brief: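 Corrected % control derives from microscope counts of live aphids per plant, treated against diluent-only checks, 3 days after foliar spraying at ~25 °C and 40% RH. Test solution was 200 ppm in 0.025% aqueous Tween 20, applied to both leaf sides of infested cabbage seedlings, four pots each.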

[2] = test system: Sweetpotato Whitefly-Crawler (Bemisia Tabaci); assay: Insecticidal test for sweetpotato whitefly-crawler in foliar spray assay (col. BEMITA); assay type: in vivo; details: Bemisia tabaci, sweetpotato whitefly-crawler, read-out: BEMITA 200 ppm (Corrected % Control, rating)
Method in brief: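 Percent control, Abbott-corrected against diluent-sprayed plants, from microscope counts of live nymphs 8-9 days after treatment. Test solution at 200 ppm in 0.025% aqueous Tween 20 applied to both leaf sides of egg-infested cotton after a 5-6 day hatch period (82° F, 50% RH).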

Compound | pest or weed control at 200 ppm [1] | pest or weed control at 200 ppm [2] | melting point
CSCC(C)C(=O)Nc1sc(-c2cccnc2)nc1C (stereo not drawn) [Compound 56] | 80 to 100% | 80 to 100% | 132 to 136 °C
Cc1nc(-c2cccnc2)sc1NC(=O)C(C)C [Compound 58] | 80 to 100% | 80 to 100% | 159 to 162 °C
CSCC(C)(C)C(=O)N(C)c1cnc(-c2ccc(Cl)nc2)s1 [Compound 68] | 80 to 100% | 80 to 100% | 104 to 108 °C
CC(C)C(=O)N(C)c1cnc(-c2ccc(Cl)nc2)s1 [Compound 69] | < 80% | 80 to 100% | 155 to 159 °C
CSCCC(=O)N(C)c1cnc(-c2ccc(Cl)nc2)s1 [Compound 70] | < 80% | < 80% | 160 to 164 °C
CC(C[S+](C)[O-])C(=O)N(C)c1cnc(-c2cccnc2)s1 (stereo not drawn) [Compound 79] | 80 to 100% | < 80% | 135 to 140 °C
CN(C(=O)C(C)(C)C[S+](C)[O-])c1cnc(-c2cccnc2)s1 (stereo not drawn) [Compound 80] | 80 to 100% | 80 to 100% | 118 to 122 °C
CC(C[S+](C)[O-])C(=O)N(C)c1cnc(-c2cncc(F)c2)s1 (stereo not drawn) [Compound 81] | 80 to 100% | 80 to 100% | 68 to 70 °C
CN(C(=O)NCC[S+](C)[O-])c1cnc(-c2cncc(F)c2)s1 (stereo not drawn) [Compound 82] | 80 to 100% | < 80% | 202 to 203 °C
CN(CC[S+](C)[O-])C(=O)N(C)c1cnc(-c2cncc(F)c2)s1 (stereo not drawn) [Compound 83] | 80 to 100% | 80 to 100% | 95 to 99 °C
CN(C(=O)C(C)(C)C[S+](C)[O-])c1cnc(-c2cncc(F)c2)s1 (stereo not drawn) [Compound 85] | 80 to 100% | 80 to 100% | 155 to 159 °C
Cc1nc(-c2cccnc2)sc1NC(=O)C(C)C[S+](C)[O-] (stereo not drawn) [Compound 92] | 80 to 100% | < 80% | 160 to 163 °C
Cc1nc(-c2cccnc2)sc1NC(=O)C(C)(C)C[S+](C)[O-] (stereo not drawn) [Compound 94] | 80 to 100% | < 80% | 55 to 60 °C
Cc1nc(-c2cncc(F)c2)sc1N(C)C(=O)C(C)CS(C)(=O)=O (stereo not drawn) [Compound 98] | 80 to 100% | 80 to 100% | 105 to 109 °C
Cc1nc(-c2cccnc2)sc1NC(=O)C(C)CS(C)(=O)=O (stereo not drawn) [Compound 99] | 80 to 100% | 80 to 100% | 175 to 180 °C
Cc1nc(-c2cccnc2)sc1NC(=O)CCS(C)(=O)=O [Compound 100] | 80 to 100% | < 80% | 222 to 224 °C
Cc1nc(-c2cccnc2)sc1NC(=O)C(C)(C)CS(C)(=O)=O [Compound 101] | 80 to 100% | 80 to 100% | 134 to 136 °C
CSCCC(=O)Nc1sc(-c2cccnc2)nc1C(F)(F)F [Compound 133] | 80 to 100% | < 80% | 131 to 133 °C
CC(C)C(=O)Nc1sc(-c2cccnc2)nc1C(F)(F)F [Compound 136] | 80 to 100% | < 80% | 130 to 131 °C
Cc1nc(-c2cncc(F)c2)sc1NC(=O)C(C)C [Compound 140] | 80 to 100% | < 80% | 155 to 159 °C
CSCC(C)C(=O)Nc1sc(-c2cncc(F)c2)nc1C (stereo not drawn) [Compound 141] | 80 to 100% | 80 to 100% | 110 to 113 °C

Compound | pest or weed control at 200 ppm [1] | pest or weed control at 200 ppm [2] | melting point
CSCCC(=O)Nc1sc(-c2cncc(F)c2)nc1C [Compound 142] | 80 to 100% | < 80% | 126 to 130 °C
Cc1nc(-c2cncc(F)c2)sc1NC(=O)C(C)(C)C[S+](C)[O-] (stereo not drawn) [Compound 143] | 80 to 100% | < 80% | 160 to 163 °C
Cc1nc(-c2cncc(F)c2)sc1NC(=O)C(C)(C)CS(C)(=O)=O [Compound 144] | 80 to 100% | < 80% | 157 to 167 °C
Cc1nc(-c2cncc(F)c2)sc1NC(=O)C(C)C[S+](C)[O-] (stereo not drawn) [Compound 145] | 80 to 100% | < 80% | 194 to 198 °C
Cc1nc(-c2cncc(F)c2)sc1NC(=O)C(C)CS(C)(=O)=O (stereo not drawn) [Compound 146] | 80 to 100% | < 80% | 187 to 189 °C
Cc1nc(-c2cncc(F)c2)sc1NC(=O)CC[S+](C)[O-] (stereo not drawn) [Compound 147] | 80 to 100% | < 80% | 181 to 184 °C
Cc1nc(-c2cncc(F)c2)sc1NC(=O)CCS(C)(=O)=O [Compound 148] | 80 to 100% | < 80% | 230 to 232 °C
Cc1nc(-c2ccc(Cl)nc2)sc1NC(=O)OC(C)(C)C [Compound 149] | < 80% | < 80% | 154 to 157 °C
Cc1cncc(-c2nc(C)c(NC(=O)OC(C)(C)C)s2)c1 [Compound 150] | 80 to 100% | < 80% | 135 to 138 °C
Cc1nc(-c2cncc(C#N)c2)sc1NC(=O)OC(C)(C)C [Compound 151] | < 80% | < 80% | 171 to 174 °C
CSCC(C)C(=O)N(C(=O)OC(C)(C)C)c1sc(-c2ccc(Cl)nc2)nc1C (stereo not drawn) [Compound 153] | < 80% | 80 to 100% | 82 to 85 °C
CSCC(C)C(=O)N(C(=O)OC(C)(C)C)c1sc(-c2cncc(C#N)c2)nc1C (stereo not drawn) [Compound 158] | < 80% | < 80% | 125 to 128 °C
CSCC(C)C(=O)Nc1sc(-c2ccc(F)nc2)nc1C (stereo not drawn) [Compound 159] | 80 to 100% | 80 to 100% | 143 to 146 °C
CCOC(=O)c1cncc(-c2nc(C)c(NC(=O)OC(C)(C)C)s2)c1 [Compound 160] | < 80% | < 80% | 124 to 128 °C
Cc1nc(-c2cncc(F)c2)sc1NC(=O)C(C)C/S(C)=N\C#N (stereo not drawn) [Compound 163] | 80 to 100% | < 80% | 75 to 81 °C
CSCC(C)C(=O)Nc1sc(-c2ccc(Cl)nc2)nc1C (stereo not drawn) [Compound 169] | < 80% | 80 to 100% | 142 to 146 °C
CSCC(C)C(=O)Nc1sc(-c2cncc(C#N)c2)nc1C (stereo not drawn) [Compound 172] | 80 to 100% | 80 to 100% | 127 to 131 °C
COc1cncc(-c2nc(C)c(NC(=O)OC(C)(C)C)s2)c1 [Compound 175] | < 80% | < 80% | 136 to 140 °C
CSCCNC(=O)N(C)c1sc(-c2cccnc2)nc1C [Compound 177] | 80 to 100% | < 80% | 115 to 119 °C
CSCCOC(=O)Nc1sc(-c2cccnc2)nc1C [Compound 181] | 80 to 100% | < 80% | 123 to 126 °C
